Patent US9340493B2, “Hydroxamic acid derivatives useful as antibacterial agents” (Pfizer Inc., priority 2008, dated 2016)
Values after ≈ are worked out from the molar mass of the structure shown.

Legend:
[1] = target: T1, Pseudomonas aeruginosa LpxC enzyme (Pseudomonas aeruginosa, UniProt P47205); assay: IC50 assay, LpxC enzyme from P. aeruginosa; format: biochemical; settings: 0.5 nM enzyme, 25° C., pH 8.0, 20 min; ** = average of 2-8 assays
T1 construct: made in house; host or cells: E. coli
T1 sequence (P47205 1-303): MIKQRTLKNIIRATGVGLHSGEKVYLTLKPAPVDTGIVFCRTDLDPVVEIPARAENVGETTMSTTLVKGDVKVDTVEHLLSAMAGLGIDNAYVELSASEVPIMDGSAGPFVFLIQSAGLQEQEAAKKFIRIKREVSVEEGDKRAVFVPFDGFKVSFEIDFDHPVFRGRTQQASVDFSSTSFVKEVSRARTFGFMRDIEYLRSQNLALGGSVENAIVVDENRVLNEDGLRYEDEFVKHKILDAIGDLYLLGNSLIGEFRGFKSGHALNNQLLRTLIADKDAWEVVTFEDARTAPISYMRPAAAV
In short: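 P. aeruginosa LpxC (0.5 nM, expressed in E. coli) reacted with 0.5 uM ³H-acetyl-labelled UDP-3-O-(R-3-hydroxydecanoyl)-GlcNAc in 50 mM sodium phosphate pH 8.0 with 1 mg/ml BSA at 25 °C for 20 min. Charcoal stopped the reaction, and filtrate radioactivity was counted by scintillation after no-enzyme background subtraction.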

[2] = tested on: P. aeruginosa PAO280; assay: MIC determination, P. aeruginosa PAO280; format: cell-based; settings: Pseudomonas aeruginosa, PAO280, read-out: MIC (ug/mL) P. aeruginosa PAO280
In short: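 Broth dilution MIC per CLSI M7-A7/M100-S18 guidelines. Strain PAO280 lacks efflux pumps MexAB-oprM, MexXY and MexZ.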

[3] = tested on: P. aeruginosa UI-18; assay: MIC determination, P. aeruginosa UI-18; format: cell-based; settings: Pseudomonas aeruginosa, UI18; wild-type; * = arithmetic mean of 2-6 MIC determinations; read-out: MIC (ug/mL) P. aeruginosa UI-18
In short: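 MIC by broth dilution following CLSI M7-A7 and M100-S18 guidelines, tested against wild-type P. aeruginosa UI-18.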

[4] = tested on: Acinetobacter baumanii/haemolyticus; assay: MIC determination, A. baumanii/haemolyticus; format: cell-based; settings: Acinetobacter baumannii; multidrug-resistant clinical isolate; * = arithmetic mean of 2-6 MIC determinations; read-out: MIC (ug/mL) A. baumanii/haemolyticus
In short: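 MICs were determined by CLSI broth dilution (M7-A7, M100-S18) against a multidrug-resistant clinical isolate of Acinetobacter baumanii/haemolyticus.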

[5] = tested on: Enterobacter aerogenes; assay: MIC determination, E. aerogenes; format: cell-based; settings: Klebsiella aerogenes; quinolone-resistant, ESBL-expressing clinical isolate; * = arithmetic mean of 2-6 MIC determinations; read-out: MIC (ug/mL) E. aerogenes
In short: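 Clinical E. aerogenes isolate, quinolone-resistant and ESBL-expressing. MIC measured in vitro by dilution testing according to CLSI guidelines (M7-A7, M100-S18).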

[6] = tested on: Escherichia coli EC-1; assay: MIC determination, E. coli EC-1; format: cell-based; settings: EC1, EC-1: VOGEL, * = arithmetic mean of 2-6 MIC determinations, read-out: MIC (ug/mL) E. coli EC-1
In short: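 Minimum inhibitory concentration against Escherichia coli EC-1 was determined in vitro by dilution susceptibility testing under CLSI M7-A7 and M100-S18 guidelines.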

[7] = tested on: Klebsiella pneumoniae; assay: MIC determination, K. pneumoniae; format: cell-based; settings: ciprofloxacin-resistant, ESBL-expressing clinical isolate, * = arithmetic mean of 2-6 MIC determinations, read-out: MIC (ug/mL) K. pneumoniae
In short: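 MIC determined by broth dilution per CLSI M7-A7 and M100-S18 guidelines. Strain: ciprofloxacin-resistant, ESBL-expressing clinical isolate of K. pneumoniae.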

[8] = tested on: Staphylococcus aureus ATCC 29213; assay: MIC determination, S. aureus ATCC 29213; format: cell-based; settings: ATCC29213, CLSI quality control reference strain, * = arithmetic mean of 2-6 MIC determinations, read-out: MIC (ug/mL) S. aureus ATCC 29213
In short: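 MIC was measured by dilution susceptibility testing following CLSI guidelines (M7-A7; M100-S18). The test organism is the CLSI quality-control reference strain.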

[9] = tested on: Serratia marcescens; assay: MIC determination, S. marcescens; format: cell-based; settings: multidrug-resistant clinical isolate, * = arithmetic mean of 2-6 MIC determinations, read-out: MIC (ug/mL) S. marcescens
Method: MIC determinations: The in vitro antibacterial activity of compounds described in the Examples was evaluated by minimum inhibitory concentration (MIC) testing according to Clinical and Laboratory Standards Institute (CLSI, formerly NCCLS) guidelines. See: Clinical and Laboratory Standards Institute. Methods for Dilution Antimicrobial Susceptibility Tests for Bacteria that Grow Aerobically; Approved Standard-Seventh Edition. CLSI document M7-A7 [ISBN 1-56238-587-9]. Clinical and Laboratory Standards Institute, 940 West Valley Road, Suite 1400, Wayne, Pa. 19087-1898 USA, 2006; also Clinical and Laboratory Standards Institute. Performance Standards for Antimicrobial Susceptibility Testing; Eighteenth Informational Supplement. CLSI document M100-S18 [ISBN1-56238-653-0]. Clinical and Laboratory Standards Institute.
The following bacterial strains were used:
Serratia marcescens: Multidrug-resistant clinical isolate.

Compound | IC50 [1] | MIC [2] | MIC [3] | MIC [4] | MIC [5] | MIC [6] | MIC [7] | MIC [8] | MIC [9]
O=C(NO)C1(OCc2ccc(-c3ccccc3)cc2)CCOCC1 [Example 58, 4-(biphenyl-4-ylmethoxy)-N-hydroxytetrahydro-2H-pyran-4-carboxamide] | 0.04 µM | 4 µg/mL (≈ 12.2 µM) | > 64 µg/mL | > 64 µg/mL | > 64 µg/mL | > 64 µg/mL | > 64 µg/mL | > 64 µg/mL | > 64 µg/mL
COCC(CO)(OCc1ccc(-c2ccccc2)cc1)C(=O)NO (stereo not drawn) [Example 56, 2-(biphenyl-4-ylmethoxy)-N,3-dihydroxy-2-(methoxymethyl)propanamide] | 0.0222 µM | 4 µg/mL (≈ 12.1 µM) | > 64 µg/mL | > 64 µg/mL | > 64 µg/mL | > 64 µg/mL | > 64 µg/mL | > 64 µg/mL | > 64 µg/mL
O=C(NO)C(CO)(CO)OCc1ccc(-c2ccccc2)cc1 [Example 91, 2-(biphenyl-4-ylmethoxy)-N,3-dihydroxy-2-(hydroxymethyl)propanamide] | 0.0108 µM | 1.25 µg/mL (≈ 3.94 µM) | 43 µg/mL (≈ 136 µM) | > 64 µg/mL | > 64 µg/mL | > 64 µg/mL | > 64 µg/mL | > 64 µg/mL | > 64 µg/mL
CC[C@H](O)[C@](C)(OCc1ccc(-c2ccccc2)cc1)C(=O)NO [Example 1, (2S,3S)-2-(biphenyl-4-ylmethoxy)-N,3-dihydroxy-2-methylpentanamide] | 0.00844 µM | 3 µg/mL (≈ 9.11 µM) | > 64 µg/mL | > 64 µg/mL | > 64 µg/mL | > 64 µg/mL | > 64 µg/mL | > 64 µg/mL | > 64 µg/mL
O=C(NO)C(CO)(CCO)OCc1ccc(-c2ccccc2)cc1 (stereo not drawn) [Example 92] | 0.0134 µM | 2 µg/mL (≈ 6.04 µM) | > 64 µg/mL | > 64 µg/mL | > 64 µg/mL | > 64 µg/mL | > 64 µg/mL | > 64 µg/mL | > 64 µg/mL
CCCC[C@H](O)[C@](C)(OCc1ccc(-c2ccccc2)cc1)C(=O)NO [Example 5, (2S,3S)-2-(biphenyl-4-ylmethoxy)-N,3-dihydroxy-2-methylheptanamide] | 0.0878 µM | 16 µg/mL (≈ 44.8 µM) | > 64 µg/mL | > 64 µg/mL | > 64 µg/mL | > 64 µg/mL | > 64 µg/mL | 64 µg/mL (≈ 179 µM) | > 64 µg/mL
CC(C)[C@H](O)[C@](C)(OCc1ccc(-c2ccccc2)cc1)C(=O)NO [Example 3, (2S,3S)-2-(biphenyl-4-ylmethoxy)-N,3-dihydroxy-2,4-dimethylpentanamide] | 0.0716 µM | 32 µg/mL (≈ 93.2 µM) | > 64 µg/mL | > 64 µg/mL | > 64 µg/mL | > 64 µg/mL | > 64 µg/mL | > 64 µg/mL | > 64 µg/mL
C[C@@](OCc1ccc(-c2ccccc2)cc1)(C(=O)NO)[C@@H](O)c1cccnc1 [Example 12, (2S,3S)-2-(biphenyl-4-ylmethoxy)-N,3-dihydroxy-2-methyl-3-pyridin-3-ylpropanamide] | 0.00181 µM | 0.5 µg/mL (≈ 1.32 µM) | 32 µg/mL (≈ 84.6 µM) | > 64 µg/mL | > 64 µg/mL | > 64 µg/mL | > 64 µg/mL | 32 µg/mL (≈ 84.6 µM) | > 64 µg/mL
O=C(NO)C(CO)(OCc1ccc(-c2ccccc2)cc1)C(F)(F)F (stereo not drawn) [Example 50, 2-(biphenyl-4-ylmethoxy)-3,3,3-trifluoro-N-hydroxy-2-(hydroxymethyl)propanamide] | 0.0147 µM | 1 µg/mL (≈ 2.81 µM) | 48 µg/mL (≈ 135 µM) | > 64 µg/mL | > 64 µg/mL | > 64 µg/mL | > 64 µg/mL | > 64 µg/mL | > 64 µg/mL
C[C@@](OCc1ccc(-c2ccccc2)cc1)(C(=O)NO)[C@@H](O)CC(F)(F)F [Example 7, (2S,3S)-2-(biphenyl-4-ylmethoxy)-N,3-dihydroxy-2-methyl-5,5,5-trifluoropentanamide] | 0.00953 µM | 2 µg/mL (≈ 5.22 µM) | > 64 µg/mL | > 64 µg/mL | > 64 µg/mL | > 64 µg/mL | > 64 µg/mL | 64 µg/mL (≈ 167 µM) | > 64 µg/mL
Cc1ccc(-c2ccc(CO[C@](C)(C(=O)NO)[C@@H](O)c3cc(C)on3)cc2)nc1 [Example 32, (2S,3S)-N,3-dihydroxy-2-methyl-3-(5-methylisoxazol-3-yl)-2-{[4-(5-methylpyridin-2-yl)benzyl]oxy}propanamide] | 0.000286 µM | 0.06 µg/mL (≈ 0.151 µM) | 8 µg/mL (≈ 20.1 µM) | > 64 µg/mL | > 64 µg/mL | 32 µg/mL (≈ 80.5 µM) | 64 µg/mL (≈ 161 µM) | > 64 µg/mL | –
COCc1cc(CNC(=O)C(C)(OCc2ccc(-c3ccccc3)cc2)C(=O)NO)no1 (stereo not drawn) [Example 85, 2-(biphenyl-4-ylmethoxy)-N-hydroxy-N′-{[5-(methoxymethyl)isoxazol-3-yl]methyl}-2-methylmalonamide] | 0.00159 µM | 0.125 µg/mL (≈ 0.284 µM) | 8 µg/mL (≈ 18.2 µM) | 64 µg/mL (≈ 146 µM) | > 64 µg/mL | 16 µg/mL (≈ 36.4 µM) | 32 µg/mL (≈ 72.8 µM) | 64 µg/mL (≈ 146 µM) | –
CCCc1ccc(-c2ccc(CO[C@](C)(C(=O)NO)[C@@H](O)c3cn4ccccc4n3)cc2)cc1 [Example 26, (2S,3S)-N,3-dihydroxy-3-imidazo[1,2-a]pyridin-2-yl-2-methyl-2-[(4′-propylbiphenyl-4-yl)methoxy]propanamide] | 0.00137 µM | 2 µg/mL (≈ 4.35 µM) | 8 µg/mL (≈ 17.4 µM) | 1 µg/mL (≈ 2.18 µM) | 8 µg/mL (≈ 17.4 µM) | 1 µg/mL (≈ 2.18 µM) | 4 µg/mL (≈ 8.7 µM) | 32 µg/mL (≈ 69.6 µM) | –
C[C@@](OCc1ccc(-c2ccccc2)cc1)(C(=O)NO)[C@@H](O)c1cn2ccccc2n1 [Example 25, (2S,3S)-2-(biphenyl-4-ylmethoxy)-N,3-dihydroxy-3-imidazo[1,2-a]pyridin-2-yl-2-methylpropanamide] | 0.00138 µM | 0.03 µg/mL (≈ 0.0719 µM) | 1.67 µg/mL (≈ 4 µM) | 32 µg/mL (≈ 76.7 µM) | 16 µg/mL (≈ 38.3 µM) | 3 µg/mL (≈ 7.19 µM) | 4 µg/mL (≈ 9.58 µM) | > 64 µg/mL | –
Cc1ccnc(-c2ccc(COC(C)(C(=O)NO)C(=O)NCc3cc(C)on3)cc2)c1 (stereo not drawn) [Example 87, N-hydroxy-2-methyl-N′-[(5-methylisoxazol-3-yl)methyl]-2-{[4-(4-methylpyridin-2-yl)benzyl]oxy}malonamide] | 0.0023 µM | 0.25 µg/mL (≈ 0.589 µM) | 32 µg/mL (≈ 75.4 µM) | > 64 µg/mL | > 64 µg/mL | > 64 µg/mL | > 64 µg/mL | > 64 µg/mL | –
Cc1nc([C@H](O)[C@](C)(OCc2ccc(-c3ccccc3)cc2)C(=O)NO)c(C)o1 [Example 27, (2S,3S)-2-(biphenyl-4-ylmethoxy)-3-(2,5-dimethyl-1,3-oxazol-4-yl)-N,3-dihydroxy-2-methylpropanamide] | 0.0652 µM | 16 µg/mL (≈ 40.4 µM) | > 64 µg/mL | > 64 µg/mL | > 64 µg/mL | > 64 µg/mL | > 64 µg/mL | > 64 µg/mL | –
